Consider four compounds from BindingDB's records for doi:10.1016/S0960-894X(00)80224-3 (1992).

This assay concerns the target Gastrin/cholecystokinin type B receptor (Cavia porcellus). Description: Displacement of [125I]CCK-OP radioligand from Cholecystokinin type B receptor of guinea pig cortical membranes. (In general: In a radioligand displacement assay an active substance lowers the binding of a labelled ligand.)

The term IC50 denotes the concentration that gives 50% inhibition. As to `O=C(N[C@H]1C(=O)N(c2ccccc2)C[C@@H]1C(=O)O)c1ccc2ccccc2c1` [(3S,4R)-4-[(Naphthalene-2-carbonyl)-amino]-5-oxo-1-phenyl-pyrrolidine-3-carboxylic acid], the concentration for half-maximal inhibition (IC50) is greater than 10 µM.
Next, `O=C(N[C@@H]1C(=O)N(c2ccccc2F)C[C@@H]1C(=O)O)c1ccc2ccccc2c1` [(3S,4S)-1-(2-Fluoro-phenyl)-4-[(naphthalene-2-carbonyl)-amino]-5-oxo-pyrrolidine-3-carboxylic acid]: greater than 10 µM.
The result for `O=C(N[C@@H]1C(=O)N(c2ccccc2F)C[C@@H]1C(=O)O)c1cnc2ccccc2c1` [(3S,4S)-1-(2-Fluoro-phenyl)-5-oxo-4-[(quinoline-3-carbonyl)-amino]-pyrrolidine-3-carboxylic acid] reads greater than 10 µM; that for `O=C(N[C@@H]1C(=O)N(c2ccccc2)C[C@@H]1C(=O)O)c1ccc2ccccc2c1` [(3S,4S)-4-[(Naphthalene-2-carbonyl)-amino]-5-oxo-1-phenyl-pyrrolidine-3-carboxylic acid], greater than 10 µM.
